From article PMC7717600, “Novel [(N-alkyl-3-indolylmethylene)hydrazono]oxindoles arrest cell cycle and induce cell apoptosis by inhibiting CDK2 and Bcl-2: synthesis, biological evaluation and in silico studies” (Journal of Enzyme Inhibition and Medicinal Chemistry, 2020)

Assays:
[1] = system: SK-MEL-5; settings: SK-MEL-5, 10 μM
[2] = system: UACC-62; settings: UACC-62, 10 μM
[3] = system: SR; settings: 10 μM
[4] = system: OVCAR-3; settings: OVCAR-3, 10 μM
[5] = system: BT-549; settings: BT-549, 10 μM
[6] = system: 786-0; settings: 786-0, 10 μM
[7] = system: PC-3; assay: NCI SRB screening; format: cell-based, human; settings: PC-3, 10 μM
[8] = system: SF-268; settings: SF-268, 10 μM
[9] = system: KM12; settings: KM12, 10 μM
[10] = system: HL-60(TB); settings: HL-60(TB), 10 μM
[11] = system: SF-295; settings: SF-295, 10 μM
[12] = system: SNB-19; settings: SNB-19, 10 μM
[13] = system: K-562; settings: K-562, 10 μM
[14] = system: DU-145; settings: DU-145, 10 μM
[15] = system: HT29; settings: HT29, 10 μM
[16] = system: SNB-75; settings: SNB-75, 10 μM
[17] = system: RPMI-8226; settings: RPMI-8226, 10 μM
[18] = system: SF-539; settings: SF-539, 10 μM
[19] = system: SK-OV-3; settings: SK-OV-3, 10 μM
[20] = system: SK-MEL-28; settings: SK-MEL-28, 10 μM
[21] = system: OVCAR-5; settings: OVCAR-5, 10 μM
[22] = system: COLO 205; assay: NCI SRB screening; format: cell-based, human; settings: COLO 205, 10 μM
[23] = system: M14; assay: NCI SRB screening; format: cell-based; settings: M14, 10 μM
[24] = system: SK-MEL-2; settings: SK-MEL-2, 10 μM
[25] = system: SW-620; settings: SW-620, 10 μM
[26] = system: IGROV1; settings: IGROV1, 10 μM
[27] = system: A498; settings: A498, 10 μM
[28] = system: MDA-MB-231/ATCC; settings: MDA-MB-231, 10 μM
[29] = system: MDA-MB-435; assay: NCI SRB screening; format: cell-based; settings: MDA-MB-435, 10 μM
[30] = system: NCI-H522; settings: NCI-H522, 10 μM
[31] = system: CCRF-CEM; settings: 10 μM
[32] = system: T-47D; settings: 10 μM
[33] = system: MALME-3M; settings: 10 μM
[34] = system: NCI-H322M; assay: NCI SRB screening; settings: 10 μM
[35] = system: UACC-257; settings: UACC-257, 10 μM
[36] = system: LOX IMVI; assay: NCI SRB screening; format: cell-based, human; settings: 10 μM
[37] = system: MDA-MB-231; assay: SRB anti-proliferative assay; format: cell-based; settings: Homo sapiens; MDA-MB-231, SRB, mean ± SE of 3
[38] = system: HCT-116; assay: SRB anti-proliferative assay; format: cell-based; settings: Homo sapiens; HCT-116, SRB, mean ± SE of 3
[39] = system: UO-31; settings: UO-31, 10 μM
[40] = system: HCT-15; settings: HCT-15, 10 μM
[41] = system: SN12C; settings: 10 μM
[42] = system: MDA-MB-468; settings: MDA-MB-468, 10 μM
[43] = system: OVCAR-4; settings: OVCAR-4, 10 μM

## C=CCn1cc(C=NN=C2C(=O)Nc3ccccc32)c2ccccc21 [Compound 10a]
[1]
  GI %: – (Only GI % higher than 10% are shown)
[2]
  GI %: 25%
[3]
  GI %: 50%
[4]
  GI %: 21%
[5]
  GI %: – (Only GI % higher than 10% are shown)
[6]
  GI %: – (Only GI % higher than 10% are shown)
[7]
  GI %: 22%
[8]
  GI %: – (Only GI % higher than 10% are shown)
[9]
  GI %: – (Only GI % higher than 10% are shown)
[10]
  GI %: 22%
[11]
  GI %: – (Only GI % higher than 10% are shown)
[12]
  GI %: – (Only GI % higher than 10% are shown)
[13]
  GI %: 30%
[14]
  GI %: – (Only GI % higher than 10% are shown)
[15]
  GI %: 10%
[16]
  GI %: 18%
[17]
  GI %: 13%
[18]
  GI %: – (Only GI % higher than 10% are shown)
[19]
  GI %: – (Only GI % higher than 10% are shown)
[20]
  GI %: – (Only GI % higher than 10% are shown)
[21]
  GI %: – (Only GI % higher than 10% are shown)
[22]
  GI %: 30%
[23]
  GI %: 12%
[24]
  GI %: – (Only GI % higher than 10% are shown)
[25]
  GI %: – (Only GI % higher than 10% are shown)
[26]
  GI %: 28%
[27]
  GI %: – (Only GI % higher than 10% are shown)
[28]
  GI %: – (Only GI % higher than 10% are shown)
[29]
  GI %: – (Only GI % higher than 10% are shown)
[30]
  GI %: 31%
[31]
  GI %: – (Only GI % higher than 10% are shown)
[32]
  GI %: 56%
[33]
  GI %: 26%
[34]
  GI %: – (Only GI % higher than 10% are shown)
[35]
  GI %: – (Only GI % higher than 10% are shown)
[36]
  GI %: – (Only GI % higher than 10% are shown)
[37]
  IC50: 11.7 ± 1.04 µM
[38]
  IC50: 7.7 ± 0.68 µM
[39]
  GI %: 33%
[40]
  GI %: 15%
[41]
  GI %: – (Only GI % higher than 10% are shown)
[42]
  GI %: 20%
[43]
  GI %: 27%

## C=CCn1cc(C=NN=C2C(=O)Nc3c(F)cccc32)c2ccccc21 [Compound 10c]
[1]
  GI %: – (Only GI % higher than 10% are shown)
[2]
  GI %: 15%
[3]
  GI %: 58%
[4]
  GI %: 13%
[5]
  GI %: – (Only GI % higher than 10% are shown)
[6]
  GI %: – (Only GI % higher than 10% are shown)
[7]
  GI %: 10%
[8]
  GI %: – (Only GI % higher than 10% are shown)
[9]
  GI %: – (Only GI % higher than 10% are shown)
[10]
  GI %: – (Only GI % higher than 10% are shown)
[11]
  GI %: – (Only GI % higher than 10% are shown)
[12]
  GI %: – (Only GI % higher than 10% are shown)
[13]
  GI %: 20%
[14]
  GI %: – (Only GI % higher than 10% are shown)
[15]
  GI %: – (Only GI % higher than 10% are shown)
[16]
  GI %: – (Only GI % higher than 10% are shown)
[17]
  GI %: – (Only GI % higher than 10% are shown)
[18]
  GI %: – (Only GI % higher than 10% are shown)
[19]
  GI %: – (Only GI % higher than 10% are shown)
[20]
  GI %: – (Only GI % higher than 10% are shown)
[21]
  GI %: – (Only GI % higher than 10% are shown)
[22]
  GI %: – (Only GI % higher than 10% are shown)
[23]
  GI %: – (Only GI % higher than 10% are shown)
[24]
  GI %: – (Only GI % higher than 10% are shown)
[25]
  GI %: – (Only GI % higher than 10% are shown)
[26]
  GI %: 31%
[27]
  GI %: – (Only GI % higher than 10% are shown)
[28]
  GI %: – (Only GI % higher than 10% are shown)
[29]
  GI %: – (Only GI % higher than 10% are shown)
[30]
  GI %: 34%
[31]
  GI %: 17%
[32]
  GI %: 50%
[33]
  GI %: – (Only GI % higher than 10% are shown)
[34]
  GI %: – (Only GI % higher than 10% are shown)
[35]
  GI %: – (Only GI % higher than 10% are shown)
[36]
  GI %: – (Only GI % higher than 10% are shown)
[37]
  IC50: 35.4 ± 1.92 µM
[38]
  IC50: 7.3 ± 0.47 µM
[39]
  GI %: 29%
[40]
  GI %: 22%
[41]
  GI %: – (Only GI % higher than 10% are shown)
[42]
  GI %: 54%
[43]
  GI %: 22%

## C=CCn1cc(C=NN=C2C(=O)Nc3ccc(Cl)cc32)c2ccccc21 [Compound 10d]
[1]
  GI %: – (Only GI % higher than 10% are shown)
[2]
  GI %: 19%
[3]
  GI %: 33%
[4]
  GI %: – (Only GI % higher than 10% are shown)
[5]
  GI %: – (Only GI % higher than 10% are shown)
[6]
  GI %: – (Only GI % higher than 10% are shown)
[7]
  GI %: – (Only GI % higher than 10% are shown)
[8]
  GI %: – (Only GI % higher than 10% are shown)
[9]
  GI %: – (Only GI % higher than 10% are shown)
[10]
  GI %: – (Only GI % higher than 10% are shown)
[11]
  GI %: – (Only GI % higher than 10% are shown)
[12]
  GI %: – (Only GI % higher than 10% are shown)
[13]
  GI %: – (Only GI % higher than 10% are shown)
[14]
  GI %: – (Only GI % higher than 10% are shown)
[15]
  GI %: – (Only GI % higher than 10% are shown)
[16]
  GI %: – (Only GI % higher than 10% are shown)
[17]
  GI %: – (Only GI % higher than 10% are shown)
[18]
  GI %: – (Only GI % higher than 10% are shown)
[19]
  GI %: – (Only GI % higher than 10% are shown)
[20]
  GI %: – (Only GI % higher than 10% are shown)
[21]
  GI %: – (Only GI % higher than 10% are shown)
[22]
  GI %: – (Only GI % higher than 10% are shown)
[23]
  GI %: – (Only GI % higher than 10% are shown)
[24]
  GI %: – (Only GI % higher than 10% are shown)
[25]
  GI %: – (Only GI % higher than 10% are shown)
[26]
  GI %: 23%
[27]
  GI %: – (Only GI % higher than 10% are shown)
[28]
  GI %: – (Only GI % higher than 10% are shown)
[29]
  GI %: – (Only GI % higher than 10% are shown)
[30]
  GI %: 17%
[31]
  GI %: – (Only GI % higher than 10% are shown)
[32]
  GI %: 30%
[33]
  GI %: – (Only GI % higher than 10% are shown)
[34]
  GI %: – (Only GI % higher than 10% are shown)
[35]
  GI %: – (Only GI % higher than 10% are shown)
[36]
  GI %: – (Only GI % higher than 10% are shown)
[37]
  IC50: 42.9 ± 2.51 µM
[38]
  IC50: 28.5 ± 1.59 µM
[39]
  GI %: 23%
[40]
  GI %: 10%
[41]
  GI %: – (Only GI % higher than 10% are shown)
[42]
  GI %: 36%
[43]
  GI %: – (Only GI % higher than 10% are shown)
